Source: article PMC9848351, “Discovery of new pyridine-quinoline hybrids as competitive and non-competitive PIM-1 kinase inhibitors with apoptosis induction and caspase 3/7 activation capabilities” (Journal of Enzyme Inhibition and Medicinal Chemistry, 2023)

Columns and labels:
[1] = system: normal human lung fibroblast Wi-38 cell line; experiment: MTT cytotoxicity on normal cells; type: cell-based; conditions: Wi-38, 72 h, MTT, mean ± SEM; for EC50: Homo sapiens, 50% cell viability; for Wi-38 EC100: safe dose, 100% cell viability
Experimental: Cytotoxicity of the tested compounds was evaluated using normal human lung fibroblast Wi-38 cell line compared to currently used anticancer drug (doxorubicin) using MTT method was used for assaying cell viability[26] (Supplementary Page S55).
Cytotoxicity test is one of the biological evaluations and screening tests that use human normal and cancer cells in-vitro to observe the effect of the studied compounds on their growth using MTT-based cytotoxicity. Microculture MTT method[26] was used to determine cytotoxic activity of the newly synthesised compounds against normal human lung fibroblast (Wi-38) using doxorubicin (Dox) as standard anticancer drug. The highest IC50 and EC100 values illustrate that the compounds were safe on the proliferation of normal human cells. […]. page 47:
(§1) Cytotoxicity of the tested compounds was evaluated using normal human lung fibroblast Wi-38 cell line compared to currently used anticancer drug (doxorubicin).
Firstly, Wi-38 cell line was subcultured in DMEM medium-contained 10% fetal bovine serum (FBS), then, seeded as 5x10^3 cells per well in 96-well cell culture plate and incubated at 37 °C in 5% CO 2 incubator. Serial concentrations of these compounds and doxorubicin (Dox) were incubat ed with Wi-38 cells for 72 h after 24 h for cell attachment. MTT method was used for assaying cell viability 25. Twenty microliters of 5 mg/ml MTT (Sigma, USA) was added to each well and the plate was incubated at 37 °C for 3 h. Then MTT solution was removed, 100 µl DMSO was used and the absorbance of each well was measured with a microplate reader ( BMG LabTech, Germany) at 570 nm. The effective concentration (IC 50) and safe dose (EC100) values of the tested compounds that cause 50% and 100% cell viability were estimated by the Graphpad Instat software. […]

[2] = system: prostate cancer cell line (PC-3); experiment: MTT anticancer activity, PC-3; type: cell-based, human; conditions: PC-3, 72 h, mean ± SEM
Experimental: (§2) Anticancer effect of the above-mentioned compounds was evaluated using four human cancer cell lines. Colon cancer cells (Caco-2), myeloid leukaemia cell line (NFS-60), liver cancer cell line (HepG-2) and prostate cancer cell line (PC-3) using MTT method was used for assaying cell viability[26] (Supplementary Page S55).
(§3) All final compounds were evaluated against four human cancer cell lines namely; liver cancer (HepG2) (ATCC® HB-8065™), colon cancer (Caco-2) (ATCC® HTB-37™), leukaemia cancer (NFS-60) (ATCC® CRL-1838™), and prostate cancer (PC-3) (ATCC® CRL-1435™) using doxorubicin (Dox) as the reference drug being widely used in tumour management utilising microculture MTT assay, declared by Mosmann[26] (Table 1 in Supplementary Material, Figures 5–8). […]
(§4) MTT method was used for assaying cell viability 25. Twenty microliters of 5 mg/ml MTT (Sigma, USA) was added to each well and the plate was incubated at 37 °C for 3 h. Then MTT solution was removed, 100 µl DMSO was used and the absorbance of each well was measured with a microplate reader ( BMG LabTech, Germany) at 570 nm. The effective concentration (IC 50) and safe dose (EC100) values of the tested compounds that cause 50% and 100% cell viability were estimated by the Graphpad Instat software.
(§5) Determination of the anticancer activity
(§6) Anticancer effect of the above-mentioned compounds was evaluated using four human cancer cell lines. Colon cancer cells (Caco-2) were maintained in DMEM (Lonza, USA) containing 10% FBS while myeloid leukemia cell line (NFS-60), liver cancer cell line (HepG-2) and prostate cancer cell line (PC-3) were cultured in RPMI-1640 (Lonza, USA) supplemented with 10% FBS. All cancer cells (5x10^3 cells/well) were seeded in sterile 96-well plates. After 24h, serial concentrations of the tested compounds and Dox were incubated with four cancer cell lines for 72 h at 37 °C in 5% CO2 incubator. MTT method was done as described above. The Graphpad Instat software was used for calculating the half maximal inhibitory concentration (IC50) values. Furthermore, phase contrast inverted microscope with a digital camera (Olympus, Japan) was used for investigating […]
(§7) safest anticancer compounds. […]

[3] = system: myeloid leukaemia cell line (NFS-60); experiment: MTT anticancer activity, NFS-60; type: cell-based; conditions: NFS-60, 72 h, MTT; mean ± SEM
Experimental: as §2, §3, §4, §5, §6, §7

[4] = system: Colon cancer cells (Caco-2); experiment: MTT anticancer activity, Caco-2; type: cell-based, human; conditions: for IC50: Caco-2, 72 h, MTT, mean ± SEM; for Caco-2 SI: selectivity index, Wi-38 versus Caco-2
Experimental: as §2
All final compounds were evaluated against four human cancer cell lines namely; liver cancer (HepG2) (ATCC® HB-8065™), colon cancer (Caco-2) (ATCC® HTB-37™), leukaemia cancer (NFS-60) (ATCC® CRL-1838™), and prostate cancer (PC-3) (ATCC® CRL-1435™) using doxorubicin (Dox) as the reference drug being widely used in tumour management utilising microculture MTT assay, declared by Mosmann[26] (Table 1 in Supplementary Material, Figures 5–8).
as §1
Firstly, Wi-38 cell line was subcultured in DMEM medium-contained 10% fetal bovine serum (FBS), then, seeded as 5x10^3 cells per well in 96-well cell culture plate and incubated at 37 °C in 5% CO 2 incubator. Serial concentrations of these compounds and doxorubicin (Dox) were incubat ed with Wi-38 cells for 72 h after 24 h for cell attachment. MTT method was used for assaying cell viability 25. Twenty microliters of 5 mg/ml MTT (Sigma, USA) was added to each well and the plate was incubated at 37 °C for 3 h. Then MTT solution was removed, 100 µl DMSO was used and the absorbance of each well was measured with a microplate reader ( BMG LabTech, Germany) at 570 nm. The effective concentration (IC 50) and safe dose (EC100) values of the tested compounds that cause 50% and 100% cell viability were estimated by the Graphpad Instat software.
as §5, §6, §7

[5] = system: liver cancer cell line (HepG-2); experiment: MTT anticancer activity, HepG-2; type: cell-based, human; conditions: Homo sapiens, HepG2; HepG-2, 72 h, MTT; mean ± SEM
Experimental: as §2, §3, §4, §5, §6, §7

melting point [°C] | IC50 ([2]; Homo sapiens, 72 h) [nM] | IC50 [3] [nM] | IC50 ([4]; Homo sapiens) [nM] | IC50 [5] [nM] | IC50 [2] [nM] | IC50 [4] [nM] | Compound | EC50 [1] [nM] | Wi-38 EC100 [1] [µM] | Caco-2 SI [4]
269 to 270 | 83.9 ± 3 | 103 ± 9 | 62.6 ± 1 | 62.8 ± 1 | – | – | COc1ccc2nc(N3CCOCC3)c(-c3cc(-c4cccc(O)c4)nc(OCC(=O)Nc4ccccc4)c3C#N)cc2c1 [11g, 2-((3-Cyano-6-(3-hydroxyphenyl)-4-(6-methoxy-2-morpholin-4-yl-quinolin-3-yl)pyridin-2-yl)oxy)-N-phenylacetamide] | 186 ± 10 | 0.0450 ± 0.005 | 2.971
> 300 | 196 ± 61 | 323 ± 7 | 194 ± 2 | 299 ± 8 | – | – | N#Cc1c(-c2cc3cc(Cl)ccc3[nH]c2=O)cc(-c2cccc(O)c2)nc1N [15b, 2-Amino-4-(6-chloro-2-oxo-1,2-dihydroquinolin-3-yl)-6-(3-hydroxyphenyl)pyridine-3-carbonitrile] | 264 ± 6 | 0.169 ± 0.009 | 1.361
> 300 | 242 ± 37 | 247 ± 16 | 191 ± 19 | 108 ± 7 | – | – | N#Cc1c(-c2cc3ccccc3[nH]c2=O)cc(-c2cccc(O)c2)nc1N [15a, 2-Amino-6-(3-hydroxyphenyl)-4-(2-oxo-1,2-dihydroquinolin-3-yl)pyridine-3-carbonitrile] | 202 ± 3 | 0.0663 ± 0.003 | 1.058
> 300 | 140 ± 20 | 145 ± 2 | 79.9 ± 3 | 49.5 ± 0.1 | – | – | CC(=O)Oc1cccc(-c2cc(-c3cc4ccccc4nc3N3CCOCC3)c(C#N)c(=O)[nH]2)c1 [7a, 3-(5-Cyano-4-(2-morpholin-4-yl-quinolin-3-yl)-6-oxo-1,6-dihydropyridin-2-yl)phenyl acetate] | 174 ± 5 | 0.102 ± 0.01 | 2.178
268 to 270 | 159 ± 7 | 110 ± 2 | 100 ± 14 | 281 ± 7 | – | – | COc1ccc(NC(=O)COc2nc(-c3cccc(O)c3)cc(-c3cc4ccccc4nc3N3CCOCC3)c2C#N)cc1 [11c] | 101 ± 1 | 0.0483 ± 0.004 | 1.010
> 300 | – | – | – | 41.6 | – | – | N#Cc1c(-c2cc3cc(Cl)ccc3nc2N2CCOCC2)cc(-c2cccc(O)c2)nc1OCC(=O)Nc1ccc(Cl)cc1 [11e, 2-((4-(6-Chloro-2-morpholin-4-yl-quinolin-3-yl)-3-cyano-6-(3-hydroxyphenyl)pyridin-2-yl)oxy)-N-(4-chlorophenyl)acetamide] | 85 ± 3 | 0.0178 ± 0.0001 | 2.733
277 to 280 | < 100 | – | < 100 | 45.8 | 59.4 ± 1 | 52.1 ± 2 | N#Cc1c(-c2cc3cc(Cl)ccc3nc2N2CCOCC2)cc(-c2cccc(O)c2)nc1OCC(=O)Nc1ccccc1 [11d, 2-((4-(6-Chloro-2-morpholin-4-yl-quinolin-3-yl)-3-cyano-6-(3-hydroxyphenyl)pyridin-2-yl)oxy)-N-phenylacetamide] | 107 ± 1 | 0.0455 ± 0.002 | 2.054
228 to 230 | – | – | – | 36.3 | – | – | COc1ccc(NC(=O)COc2nc(-c3cccc(O)c3)cc(-c3cc4cc(Cl)ccc4nc3N3CCOCC3)c2C#N)cc1 [11f, 2-((4-(6-Chloro-2-morpholin-4-yl-quinolin-3-yl)-3-cyano-6-(3-hydroxyphenyl)pyridin-2-yl)oxy)-N-(4-methoxyphenyl)acetamide] | 181 ± 13 | 0.0347 ± 0.003 | 5.262

The remaining lines, values behind:

Compound | melting point [°C] | IC50 ([2]; Homo sapiens, 72 h) [nM] | IC50 [3] [nM] | IC50 ([4]; Homo sapiens) [nM] | IC50 [5] [nM] | IC50 [2] [nM] | IC50 [4] [nM] | EC50 [1] [nM] | Wi-38 EC100 [1] [µM] | Caco-2 SI [4]
N#Cc1c(-c2cc3ccccc3nc2N2CCOCC2)cc(-c2cccc(O)c2)nc1S [6a, 6-(3-Hydroxyphenyl)-4-(2-morpholin-4-yl-quinolin-3-yl)-2-mercaptopyridine-3-carbonitrile] | 240 to 242 | 127 ± 2 | 135 ± 2 | 104 ± 4 | 74 ± 2 | – | – | 181 ± 5 | 0.0785 ± 0.003 | 1.740
N#Cc1c(-c2cc3cc(Cl)ccc3nc2N2CCCCC2)cc(-c2cccc(O)c2)[nH]c1=O [5e, 4-(6-Chloro-2-(piperidin-1-yl)quinoline-3-yl)-6-(3-hydroxyphenyl)-2-oxo-1,2-dihydropyridine-3-carbonitrile] | > 300 | 40.9 ± 1 | 62.7 ± 27 | 51.7 ± 5 | 36.1 ± 1 | – | – | 27.6 ± 1 | 0.0234 ± 0.001 | 0.534
N#Cc1c(-c2cc3ccccc3nc2N2CCOCC2)cc(-c2cccc(O)c2)[nH]c1=O [5a, 6-(3-Hydroxyphenyl)-4-(morpholin-4-yl-quinolin-3-yl)-2-oxo-1,2-dihydropyridine-3-carbonitrile] | > 300 | – | 31.62 ± 0.1 | 38.8 ± 8 | 34.4 ± 6 | – | – | 60.3 ± 40 | 0.0192 ± 0.003 | 1.554
N#Cc1c(-c2cc3cc(Cl)ccc3nc2N2CCOCC2)cc(-c2cccc(O)c2)nc1S [6b, 4-(6-Chloro-2-morpholin-4-yl-quinolin-3-yl)-6-(3-hydroxyphenyl)-2-mercaptopyridine-3-carbonitrile] | 260 to 261 | 119 ± 14 | 204 ± 6 | 55.2 ± 3 | 46.6 ± 1 | – | – | 138 ± 2 | 0.0493 ± 0.001 | 2.500
N#Cc1c(-c2cc3ccccc3nc2N2CCCCC2)cc(-c2cccc(O)c2)nc1S [6d, 6-(3-Hydroxyphenyl)-4-(2-(piperidin-1-yl)quinolin-3-yl)-2-mercaptopyridine-3-carbonitrile] | > 300 | 135 ± 11 | 217 ± 22 | 70.8 ± 3 | 87.6 ± 2 | – | – | 759 ± 25 | 0.212 ± 0.009 | 10.720
